Reference: paper PMC11855478, “Bicyclic N,S-Acetals Containing Fused Cysteine-Amide System as New Heterocyclic Class Targeting Human Farnesyltransferase (FTase-h)” (International Journal of Molecular Sciences, 2025)

What was measured:
Format in all cases: cell-based, human
[1] = test system: CCRF-CEM (Leukemia); assay: NCI one dose, CCRF-CEM; conditions: 1.00E-5 Molar one dose
Procedure, shortened: (§1)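 NCI-run assay on its 60 human cancer cell lines, cytotoxicity determined via sulforhodamine B after 48 h of exposure.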

[2] = test system: K-562 leukaemia cells; assay: NCI one dose, K-562; conditions: for Growth Percent: K-562, 1.00E-5 Molar one dose
Procedure, shortened: as §1

[3] = test system: RPMI-8226 (Leukemia); assay: NCI one dose, RPMI-8226; conditions: RPMI-8226, 1.00E-5 Molar one dose
Procedure, shortened: as §1

[4] = test system: SR (Leukemia); assay: NCI one dose, SR; conditions: 1.00E-5 Molar one dose
Method: (§2) 3.4. Cell Proliferation Assay
(§3) Selected compounds were tested on a panel of 60 human cancer cell lines at the National Cancer Institute (NCI), Germantown, MD, USA. The cytotoxicity studies were conducted using a 48 h exposure protocol using the sulfo-rhodamine B assay.

[5] = test system: A549/ATCC (Non-Small Cell Lung Cancer); assay: NCI one dose, A549/ATCC; conditions: 1.00E-5 Molar one dose
Procedure, shortened: as §1

[6] = test system: EKVX (Non-Small Cell Lung Cancer); assay: NCI one dose, EKVX; conditions: 1.00E-5 Molar one dose
Procedure, shortened: as §1

[7] = test system: HOP-92 (Non-Small Cell Lung Cancer); assay: NCI one dose, HOP-92; conditions: HOP-92, 1.00E-5 Molar one dose
Procedure, shortened: as §1

[8] = test system: NCI-H23 (Non-Small Cell Lung Cancer); assay: NCI one dose, NCI-H23; conditions: NCI-H23, 1.00E-5 Molar one dose
Procedure, shortened: as §1

[9] = test system: NCI-H322M (Non-Small Cell Lung Cancer); assay: NCI one dose, NCI-H322M; conditions: 1.00E-5 Molar one dose
Procedure, shortened: as §1

[10] = test system: COLO 205 (Colon Cancer); assay: NCI one dose, COLO 205; conditions: COLO 205, 1.00E-5 Molar one dose
Method: as §2, §3

[11] = test system: HCC-2998 (Colon Cancer); assay: NCI one dose, HCC-2998; conditions: HCC-2998, 1.00E-5 Molar one dose
Procedure, shortened: as §1

[12] = test system: HCT-116 (Colon Cancer); assay: NCI one dose, HCT-116; conditions: HCT-116, 1.00E-5 Molar one dose
Procedure, shortened: as §1

[13] = test system: KM12 (Colon Cancer); assay: NCI one dose, KM12; conditions: KM12, 1.00E-5 Molar one dose
Procedure, shortened: as §1

[14] = test system: SW-620 (Colon Cancer); assay: NCI one dose, SW-620; conditions: SW-620, 1.00E-5 Molar one dose
Procedure, shortened: as §1

[15] = test system: SF-268 (CNS Cancer); assay: NCI one dose, SF-268; conditions: SF-268, 1.00E-5 Molar one dose
Procedure, shortened: as §1

[16] = test system: SF-295 (CNS Cancer); assay: NCI one dose, SF-295; conditions: SF-295, 1.00E-5 Molar one dose
Procedure, shortened: (§4)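 Sulforhodamine B protein staining measured cell growth after cells from the NCI 60-line panel were exposed to compound for 48 h.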

[17] = test system: SNB-75 (CNS Cancer); assay: NCI one dose, SNB-75; conditions: SNB-75, 1.00E-5 Molar one dose
Procedure, shortened: as §1

[18] = test system: U251 (CNS Cancer); assay: NCI one dose, U251; conditions: U251, 1.00E-5 Molar one dose
Procedure, shortened: as §1

[19] = test system: LOX IMVI (Melanoma); assay: NCI one dose, LOX IMVI; conditions: 1.00E-5 Molar one dose
Procedure, shortened: as §1

[20] = test system: MALME-3M (Melanoma); assay: NCI one dose, MALME-3M; conditions: 1.00E-5 Molar one dose
Procedure, shortened: as §4

[21] = test system: M14 (Melanoma); assay: NCI one dose, M14; conditions: M14, 1.00E-5 Molar one dose
Procedure, shortened: as §1

[22] = test system: MDA-MB-435 (Melanoma); assay: NCI one dose, MDA-MB-435; conditions: MDA-MB-435, 1.00E-5 Molar one dose
Procedure, shortened: as §4

[23] = test system: SK-MEL-2 (Melanoma); assay: NCI one dose, SK-MEL-2; conditions: SK-MEL-2, 1.00E-5 Molar one dose
Procedure, shortened: as §1

[24] = test system: SK-MEL-28 (Melanoma); assay: NCI one dose, SK-MEL-28; conditions: SK-MEL-28, 1.00E-5 Molar one dose
Procedure, shortened: as §1

[25] = test system: IGROV1 (Ovarian Cancer); assay: NCI one dose, IGROV1; conditions: IGROV1, 1.00E-5 Molar one dose
Procedure, shortened: as §1

[26] = test system: OVCAR-4 (Ovarian Cancer); assay: NCI one dose, OVCAR-4; conditions: OVCAR-4, 1.00E-5 Molar one dose
Procedure, shortened: as §1

[27] = test system: OVCAR-8 (Ovarian Cancer); assay: NCI one dose, OVCAR-8; conditions: OVCAR-8, 1.00E-5 Molar one dose
Procedure, shortened: as §4

[28] = test system: NCI/ADR-RES (Ovarian Cancer); assay: NCI one dose, NCI/ADR-RES; conditions: 1.00E-5 Molar one dose
Procedure, shortened: as §1

[29] = test system: 786-0 (Renal Cancer); assay: NCI one dose, 786-0; conditions: 786-0, 1.00E-5 Molar one dose
Procedure, shortened: as §1

[30] = test system: A498 (Renal Cancer); assay: NCI one dose, A498; conditions: A498, 1.00E-5 Molar one dose
Procedure, shortened: as §1

[31] = test system: CAKI-1 (Renal Cancer); assay: NCI one dose, CAKI-1; conditions: CAKI-1, 1.00E-5 Molar one dose
Procedure, shortened: as §1

[32] = test system: RXF 393 (Renal Cancer); assay: NCI one dose, RXF 393; conditions: RXF 393, 1.00E-5 Molar one dose
Procedure, shortened: as §1

[33] = test system: UO-31 renal cancer cells; assay: NCI one dose, UO-31; conditions: for Growth Percent: UO-31, 1.00E-5 Molar one dose
Procedure, shortened: as §1

[34] = test system: PC-3 (Prostate Cancer); assay: NCI one dose, PC-3; conditions: PC-3, 1.00E-5 Molar one dose
Procedure, shortened: as §1

[35] = test system: DU-145 (Prostate Cancer); assay: NCI one dose, DU-145; conditions: DU-145, 1.00E-5 Molar one dose
Procedure, shortened: as §1

[36] = test system: MCF7 (Breast Cancer); assay: NCI one dose, MCF7; conditions: MCF7, 1.00E-5 Molar one dose
Procedure, shortened: as §1

[37] = test system: MDA-MB-231/ATCC (Breast Cancer); assay: NCI one dose, MDA-MB-231/ATCC; conditions: 1.00E-5 Molar one dose
Procedure, shortened: as §1

[38] = test system: HS 578T (Breast Cancer); assay: NCI one dose, HS 578T; conditions: 1.00E-5 Molar one dose
Procedure, shortened: as §1

[39] = test system: T-47D (Breast Cancer); assay: NCI one dose, T-47D; conditions: 1.00E-5 Molar one dose
Method: as §2, §3

COc1ccc(CNC(=O)[C@@H]2CS[C@@]3(C)c4ccccc4C(=O)N23)cc1OC [4bI]
Growth Percent [1]: 81.76%
inhibition at 10 µM ([2]; Homo sapiens, K562, 10 µM single dose, read-out: inhibition of growth of K-562 leukaemia cells): 34%
Growth Percent [2]: 66.10%
Growth Percent [3]: 81.37%
Growth Percent [4]: 75.23%
Growth Percent [5]: 79.51%
Growth Percent [6]: 107.62%
Growth Percent [7]: 93.76%
Growth Percent [8]: 82.91%
Growth Percent [9]: 96.18%
Growth Percent [10]: 107.68%
Growth Percent [11]: 96.29%
Growth Percent [12]: 95.39%
Growth Percent [13]: 102.81%
Growth Percent [14]: 101.58%
Growth Percent [15]: 99.31%
Growth Percent [16]: 102.29%
Growth Percent [17]: 110.74%
Growth Percent [18]: 93.58%
Growth Percent [19]: 100.38%
Growth Percent [20]: 106.59%
Growth Percent [21]: 107.68%
Growth Percent [22]: 105.24%
Growth Percent [23]: 79.40%
Growth Percent [24]: 104.89%
Growth Percent [25]: 104.59%
Growth Percent [26]: 91.78%
Growth Percent [27]: 91.42%
Growth Percent [28]: 100.18%
Growth Percent [29]: 107.06%
Growth Percent [30]: 83.43%
Growth Percent [31]: 89.36%
Growth Percent [32]: 104.59%
inhibition at 10 µM ([33]; Homo sapiens, UO-31, 10 µM single dose, read-out: inhibition of growth of UO-31 renal cancer cells): 20%
Growth Percent [33]: 79.77%
Growth Percent [34]: 88.41%
Growth Percent [35]: 103.50%
Growth Percent [36]: 87.17%
Growth Percent [37]: 98.00%
Growth Percent [38]: 94.35%
Growth Percent [39]: 71.47%

COc1cccc(CNC(=O)[C@@H]2CS[C@@]3(C)c4ccccc4C(=O)N23)c1 [4bE]
Growth Percent [1]: 94.80%
Growth Percent [2]: 82.59%
Growth Percent [3]: 95.74%
Growth Percent [4]: 81.22%
Growth Percent [5]: 76.25%
Growth Percent [6]: 112.43%
Growth Percent [7]: 101.27%
Growth Percent [8]: 98.91%
Growth Percent [9]: 102.58%
Growth Percent [10]: 115.50%
Growth Percent [11]: 107.01%
Growth Percent [12]: 104.89%
Growth Percent [13]: 107.56%
Growth Percent [14]: 104.85%
Growth Percent [15]: 106.18%
Growth Percent [16]: 97.61%
Growth Percent [17]: 98.09%
Growth Percent [18]: 100.00%
Growth Percent [19]: 101.37%
Growth Percent [20]: 110.68%
Growth Percent [21]: 104.58%
Growth Percent [22]: 98.34%
Growth Percent [23]: 97.24%
Growth Percent [24]: 112.92%
Growth Percent [25]: 107.98%
Growth Percent [26]: 94.52%
Growth Percent [27]: 90.08%
Growth Percent [28]: 98.88%
Growth Percent [29]: 105.14%
Growth Percent [30]: 85.49%
Growth Percent [31]: 85.65%
Growth Percent [32]: 107.08%
Growth Percent [33]: 91.68%
Growth Percent [34]: 96.89%
Growth Percent [35]: 106.55%
Growth Percent [36]: 89.13%
Growth Percent [37]: 105.57%
Growth Percent [38]: 95.18%
Growth Percent [39]: 96.67%
